Read-outs that look alike come from different tables or passages of the source.
What was measured:
MCF-7-Palbo-R cells = test: MCF-7-Palbo-R cell antiproliferative assay (BrdU ELISA); format: cell-based; conditions: for IC50: 72 hours, BrdU; for Bottom(%): bottom of inhibition curve; for Top(%): top of inhibition curve
Procedure: 1. Experimental Materials • MCF-7/palbo-R • EMEM medium (ATCC, 30-2003); DMEM/F12 medium (Gibco-1 1330-032) • Fetal bovine serum (cellmax-SA21 1.02) • DMSO (SIGMA, D2650) • BrdU ELISA cell proliferation assay kit (Roche, 11647229001) • ELISA (e.g. MD-SpectraMax ID5 or EnVision)
2. Experimental protocol • 1. Cell spreading • 1) Cells were counted, the concentration of cell suspension was adjusted • 2) The MCF7/Palbo-R cell suspension was seeded in 96-well plates at […] volume to make the number of cells per well is 4000-5000; • 3) Blank control group was added with 90 μl of culture medium; • 2. […] A 3-fold serial gradient dilution was performed with 0.1% DMSO medium for a total of 9 concentrations, and the concentrations of the compounds after dilution were as follows: • 10000 nM, 3333.33 nM, 1111.11 nM, 370.34 nM, 123.45 nM, 41.15 nM, 13.72 nM, 4.57 nM, and 1.52 nM. • b) After 72 hours of compound treatment. • 1) A 10 mM of Brdu stock solution was diluted with RPMI medium and added to a 96-well plate at 20 uL/well and shaken at 350 rpm for 10 minutes. • 2) The 96 well plate was placed back into the incubator for 1 or 2 hours. • 3) After the medium was removed from the 96-well plate, 200 ul/well of Fixation/Denaturation solution was added and incubated for 30 minutes at room temperature. • 4) The fixation solution was removed and 100 ul of peroxidase-coupled anti-Brdu antibody solution (antibody dilution prepared at 1:100 dilution) was added, • and incubated at 350 rpm for 1 hour at room temperature. • 6) The 96-well plate was washed three times with 300 ul/well of PBS. • 8) 100ul of peroxidase substrate solution was added and shaken at 350 rpm for about 10-20 minutes at room temperature, • until the DMSO-treated cell control wells turn a medium blue color. If a color is too dark, it will cause the absorbance value to out of the reading range. • 9) The reaction was terminated by the addition of 25 ul of 1 M sulfuric acid. Shake to ensure uniform color. • 10) The absorbance at 450 nm was recorded. • 3. Data analysis • The inhibition rate is calculated using the following equation:
IR (%)=(1−(RLU compound−RLU blank)/(RLU control−RLU blank))*100%.

CDK2/CycE1 = CDK2/CycE1 (Homo sapiens, UniProt P24941); test: Enzyme activity test; format: biochemical;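 also: values come from the source column headed CDK2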
Method in brief: (§1)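 Mobility-shift read-out on EZ Reader after a 150 min room-temperature reaction started with ATP. Before that, the kinase, substrate and cofactor mix sat 30 min with compound delivered from a […] DMSO stock. Inhibition was expressed relative to DMSO-only and enzyme-free wells.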

CDK6/CycD1 = CDK6/CycD1 (Homo sapiens, UniProt Q00534); test: Enzyme activity test; format: biochemical;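 also: values come from the source column headed CDK6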
Method in brief: as §1

CDK4/CycD3 = CDK4/CycD3 (Homo sapiens, UniProt P11802); test: Enzyme activity test; format: biochemical;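 also: values come from the source column headed CDK4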
Method in brief: as §1

Chain of CDK4/CycD3 (P11802 whole entry, species assumed): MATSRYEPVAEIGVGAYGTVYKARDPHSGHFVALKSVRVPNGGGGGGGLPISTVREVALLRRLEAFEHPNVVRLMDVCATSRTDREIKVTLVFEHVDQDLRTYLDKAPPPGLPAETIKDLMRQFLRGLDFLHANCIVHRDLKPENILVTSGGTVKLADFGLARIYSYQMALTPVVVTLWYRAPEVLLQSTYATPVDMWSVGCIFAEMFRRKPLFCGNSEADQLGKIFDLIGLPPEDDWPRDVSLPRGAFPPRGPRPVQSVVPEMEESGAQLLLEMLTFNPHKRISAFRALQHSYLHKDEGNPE
Chain of CDK4/CycD3 (P30281 whole entry partner, species assumed): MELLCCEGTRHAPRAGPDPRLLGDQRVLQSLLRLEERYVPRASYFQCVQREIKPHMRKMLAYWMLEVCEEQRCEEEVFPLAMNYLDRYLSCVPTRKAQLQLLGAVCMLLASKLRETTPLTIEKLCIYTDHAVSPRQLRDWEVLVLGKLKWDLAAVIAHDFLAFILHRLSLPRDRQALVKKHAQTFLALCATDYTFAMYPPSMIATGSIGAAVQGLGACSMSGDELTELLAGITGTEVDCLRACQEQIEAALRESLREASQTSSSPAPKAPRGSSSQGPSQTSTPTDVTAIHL
Chain of CDK6/CycD1 (Q00534 whole entry, species assumed): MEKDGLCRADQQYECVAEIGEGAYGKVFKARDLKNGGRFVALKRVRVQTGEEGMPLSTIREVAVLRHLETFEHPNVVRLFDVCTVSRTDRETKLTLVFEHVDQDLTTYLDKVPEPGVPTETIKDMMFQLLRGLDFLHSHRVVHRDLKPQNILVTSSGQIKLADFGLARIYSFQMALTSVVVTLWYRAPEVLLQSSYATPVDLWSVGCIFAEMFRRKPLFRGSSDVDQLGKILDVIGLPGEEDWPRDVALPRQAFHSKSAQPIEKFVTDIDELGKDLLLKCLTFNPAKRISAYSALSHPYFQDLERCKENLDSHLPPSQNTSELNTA
Chain of CDK6/CycD1 (P24385 whole entry partner, species assumed): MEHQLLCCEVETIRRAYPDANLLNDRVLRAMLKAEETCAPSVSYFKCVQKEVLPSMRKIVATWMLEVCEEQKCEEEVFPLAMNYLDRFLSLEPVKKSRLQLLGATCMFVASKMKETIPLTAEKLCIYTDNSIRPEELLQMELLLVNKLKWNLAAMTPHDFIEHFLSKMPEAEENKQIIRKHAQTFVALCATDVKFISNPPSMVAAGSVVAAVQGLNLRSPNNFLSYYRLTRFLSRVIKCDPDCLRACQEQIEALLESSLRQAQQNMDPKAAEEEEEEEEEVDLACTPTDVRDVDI

IC50 (MCF-7-Palbo-R cells; read-out: AbsIC50) | IC50 (MCF-7-Palbo-R cells; read-out: ReIC50) | IC50 (CDK2/CycE1) | IC50 (CDK6/CycD1) | IC50 (CDK4/CycD3) | SMILES | Bottom(%) (MCF-7-Palbo-R cells) | Top(%) (MCF-7-Palbo-R cells)
54 nM | 49 nM |  |  |  | C[C@@]1(O)CCC[C@H]1n1c(=O)c(C(F)F)cc2cnc(NC3CCN(S(C)(=O)=O)CC3)nc21 [PF-06873600, reference compound] | 7.487% | 98.896%
36 nM | 38 nM | < 10 nM | < 10 nM | < 10 nM | C[C@@]1(O)CCC[C@H]1n1c(=O)c(OC(F)F)cc2cnc(NC3CCN(S(C)(=O)=O)CC3)nc21 [Example 3] | 6.317% | 98.857%

— patent US20240287065A1, “COMPOUND AS CDK KINASE INHIBITOR AND USE THEREOF” (TYK MEDICINES (ZHENGZHOU) , INC., priority 2021, published 2024)
